# Assay results as given in patent US9029377B2, “Platelet-activating factor receptor antagonists” (Merck Sharp & Dohme Corp., priority 2009, dated 2015).
# Biological target: PAFR (Homo sapiens, UniProt P25105)
# Assay: PAF Binding Assay (PAFR binding)
# PAFR, sequence (P25105 whole entry): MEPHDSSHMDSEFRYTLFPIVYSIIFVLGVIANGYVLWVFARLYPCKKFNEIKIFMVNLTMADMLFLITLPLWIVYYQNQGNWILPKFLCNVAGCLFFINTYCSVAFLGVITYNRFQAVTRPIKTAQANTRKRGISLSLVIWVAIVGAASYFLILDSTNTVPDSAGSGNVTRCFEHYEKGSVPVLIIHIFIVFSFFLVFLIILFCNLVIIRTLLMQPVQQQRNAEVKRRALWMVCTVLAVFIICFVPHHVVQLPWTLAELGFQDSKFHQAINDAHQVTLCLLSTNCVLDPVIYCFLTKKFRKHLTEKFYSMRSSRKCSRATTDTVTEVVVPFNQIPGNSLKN
row,SMILES,IC50 [nM]
1,"O=S(=O)(N[C@H]1CCC[C@@H](n2cnnc2)C1)c1cccc(OC(F)(F)F)c1 [Compound 2Mc, N-[(1S,3R)-3-(4H-1,2,4-triazol-4-yl)cyclohexyl]-3-(trifluoromethoxy)benzenesulfonamide]",410
2,"O=S(=O)(N[C@H]1CCC[C@@H](n2cnnc2)C1)c1cccc(OC(F)F)c1 [Compound 2Md, 3-(difluoromethoxy)-N-[(1S,3R)-3-(4H-1,2,4-triazol-4-yl)cyclohexyl]benzenesulfonamide]",323
3,"Cc1cc(C)cc(S(=O)(=O)N[C@H]2CCC[C@@H](n3cnnc3)C2)c1 [Compound 2Me, 3,5-dimethyl-N-[(1S,3R)-3-(4H-1,2,4-triazol-4-yl)cyclohexyl]benzenesulfonamide]",194
4,"O=S(=O)(N[C@H]1CCC[C@@H](n2cnnc2)C1)c1ccc(-c2noc(C3CC3)n2)cc1 [Compound 2Ml, 4-(5-cyclopropyl-1,2,4-oxadiazol-3-yl)-N-[(1S,3R)-3-(4H-1,2,4-triazol-4-yl)cyclohexyl]benzenesulfonamide]",243
5,"CCCCOc1ccc(S(=O)(=O)N[C@H]2CCC[C@@H](n3cnnc3)C2)cc1 [Compound 2Mw, 4-butoxy-N-[(1S,3R)-3-(4H-1,2,4-triazol-4-yl)cyclohexyl]benzenesulfonamide]",8.3
6,"COc1ccc(S(=O)(=O)N[C@H]2CCC[C@@H](n3cnnc3)C2)cc1OC [Compound 2Mx, 3,4-dimethoxy-N-[(1S,3R)-3-(4H-1,2,4-triazol-4-yl)cyclohexyl]benzenesulfonamide]",600
7,"COc1ccc(S(=O)(=O)N[C@H]2CCC[C@@H](n3cnnc3)C2)c(OC)c1 [Compound 2My, 2,4-dimethoxy-N-[(1S,3R)-3-(4H-1,2,4-triazol-4-yl)cyclohexyl]benzenesulfonamide]",210
8,"Cc1nncn1[C@@H]1CCC[C@H](NS(=O)(=O)c2ccc(OCCCC(F)(F)F)cc2)C1 [Compound 2Nac, N-[(1S,3R)-3-(3-methyl-4H-1,2,4-triazol-4-yl)cyclohexyl]-4-(4,4,4-trifluorobutoxy)benzenesulfonamide]",4.7
9,"Cc1nncn1[C@@H]1CCC[C@H](NS(=O)(=O)c2ccc(OCCCCF)cc2)C1 [Compound 2Nad, 4-(4-fluorobutoxy)-N-[(1S,3R)-3-(3-methyl-4H-1,2,4-triazol-4-yl)cyclohexyl]benzenesulfonamide]",11
10,"CCCCOc1cc(F)c(S(=O)(=O)N[C@H]2CCC[C@@H](n3cnnc3C)C2)cc1F [Compound 2Nae, 4-butoxy-2,5-difluoro-N-[(1S,3R)-3-(3-methyl-4H-1,2,4-triazol-4-yl)cyclohexyl]benzenesulfonamide]",5.4
11,"Cc1cn(-c2ccc(S(=O)(=O)N[C@H]3CCC[C@@H](n4cnnc4C)C3)cc2)cn1 [Compound 2Nt, 4-(4-methyl-1H-imidazol-1-yl)-N-[(1S,3R)-3-(3-methyl-4H-1,2,4-triazol-4-yl)cyclohexyl]benzenesulfonamide]",870
12,"CCCCOc1ccc(S(=O)(=O)N[C@H]2CCC[C@@H](n3cnnc3C)C2)cc1 [Compound 2Nw, 4-butoxy-N-[(1S,3R)-3-(3-methyl-4H-1,2,4-triazol-4-yl)cyclohexyl]benzenesulfonamide]",2.8

# Next, values leading:
row,IC50 [nM],SMILES
1,13,"CCCCCc1ccc(S(=O)(=O)N[C@H]2CCC[C@@H](n3cnnc3)C2)cc1 [Compound 2Mah, 4-pentyl-N-[(1S,3R)-3-(4H-1,2,4-triazol-4-yl)cyclohexyl]benzenesulfonamide]"
2,157,"CC(C)(C)c1cccc(S(=O)(=O)N[C@H]2CCC[C@@H](n3cnnc3)C2)c1 [Compound 2Mf, 3-tert-butyl-N-[(1S,3R)-3-(4H-1,2,4-triazol-4-yl)cyclohexyl]benzenesulfonamide]"
3,30,"O=S(=O)(N[C@H]1CCC[C@@H](n2cnnc2)C1)c1cccc(-c2ccccc2)c1 [Compound 2Mg, N-[(1S,3R)-3-(4H-1,2,4-triazol-4-yl)cyclohexyl]biphenyl-3-sulfonamide]"
4,165,"O=S(=O)(N[C@H]1CCC[C@@H](n2cnnc2)C1)c1cc(Br)cc(C(F)(F)F)c1 [Compound 2Mi, 3-bromo-N-[(1S,3R)-3-(4H-1,2,4-triazol-4-yl)cyclohexyl]-5-(trifluoromethyl)benzenesulfonamide]"
5,26,"CCc1ccc(S(=O)(=O)N[C@H]2CCC[C@@H](n3cnnc3)C2)cc1-c1ccccc1 [Compound 2Mm, 6-ethyl-N-[(1S,3R)-3-(4H-1,2,4-triazol-4-yl)cyclohexyl]biphenyl-3-sulfonamide]"
6,63,"CCc1ccc(S(=O)(=O)N[C@H]2CCC[C@@H](n3cnnc3)C2)cc1-c1cccnc1OC [Compound 2Mn, 4-ethyl-3-(2-methoxypyridin-3-yl)-N-[(1S,3R)-3-(4H-1,2,4-triazol-4-yl)cyclohexyl]benzenesulfonamide]"
7,12,"O=S(=O)(N[C@H]1CCC[C@@H](n2cnnc2)C1)c1cc(F)c(-c2ccc(OC(F)(F)F)cc2)cc1F [Compound 2Mo, 2,5-difluoro-N-[(1S,3R)-3-(4H-1,2,4-triazol-4-yl)cyclohexyl]-4′-(trifluoromethoxy)biphenyl-4-sulfonamide]"
8,164,"O=S(=O)(N[C@H]1CCC[C@@H](n2cnnc2)C1)c1ccc(OC(F)(F)F)cc1 [Compound 2Mu, N-[(1S,3R)-3-(4H-1,2,4-triazol-4-yl)cyclohexyl]-4-(trifluoromethoxy)benzenesulfonamide]"
9,51,"O=S(=O)(N[C@H]1CCC[C@@H](n2cnnc2)C1)c1ccc(Oc2ccccc2)cc1 [Compound 2Mv, 4-phenoxy-N-[(1S,3R)-3-(4H-1,2,4-triazol-4-yl)cyclohexyl]benzenesulfonamide]"
10,25,"CC(C)Oc1ccc(S(=O)(=O)N[C@H]2CCC[C@@H](n3cnnc3)C2)cc1 [Compound 2Mz, 4-isopropoxy-N-[(1S,3R)-3-(4H-1,2,4-triazol-4-yl)cyclohexyl]benzenesulfonamide]"
11,9.6,"Cc1nncn1[C@@H]1CCC[C@H](NS(=O)(=O)c2ccc(-c3noc(C4CC4)n3)cc2)C1 [Compound 2Nl, 4-(5-cyclopropyl-1,2,4-oxadiazol-3-yl)-N-[(1S,3R)-3-(3-methyl-4H-1,2,4-triazol-4-yl)cyclohexyl]benzenesulfonamide]"
12,51,"Cc1nncn1[C@@H]1CCC[C@H](NS(=O)(=O)c2ccc(C(C)(C)C)cc2)C1 [Compound 2Np, 4-tert-butyl-N-[(1S,3R)-3-(3-methyl-4H-1,2,4-triazol-4-yl)cyclohexyl]benzenesulfonamide]"
13,28,"Cc1nncn1[C@@H]1CCC[C@H](NS(=O)(=O)c2ccc(C(C)C)cc2)C1 [Compound 2Nq, 4-isopropyl-N-[(1S,3R)-3-(3-methyl-4H-1,2,4-triazol-4-yl)cyclohexyl]benzenesulfonamide]"
14,56,"Cc1nncn1[C@@H]1CCC[C@H](NS(=O)(=O)c2ccc(-n3nccc3C3CC3)cc2)C1 [Compound 2Nr, 4-(5-cyclopropyl-1H-pyrazol-1-yl)-N-[(1S,3R)-3-(3-methyl-4H-1,2,4-triazol-4-yl)cyclohexyl]benzenesulfonamide]"
15,30,"Cc1nncn1[C@@H]1CCC[C@H](NS(=O)(=O)c2ccc(-n3ccc(C4CC4)n3)cc2)C1 [Compound 2Ns, 4-(3-cyclopropyl-1H-pyrazol-1-yl)-N-[(1S,3R)-3-(3-methyl-4H-1,2,4-triazol-4-yl)cyclohexyl]benzenesulfonamide]"
